Results taken from patent publication US20040175762A1, “Screening system based on expression of abcg2 half transporter protein” (priority 2001, published 2004).
Read-outs that look alike come from different tables or passages of the source.

Tests used:
ABCG2 [1] = molecular target: T1, ABCG2 (Homo sapiens, UniProt Q9UNQ0, R482G); test: Vanadate sensitive ATPase activity in isolated membranes of ABCG2-expressing Sf9 cells
T1 sequence (Q9UNQ0 1-655 R482G): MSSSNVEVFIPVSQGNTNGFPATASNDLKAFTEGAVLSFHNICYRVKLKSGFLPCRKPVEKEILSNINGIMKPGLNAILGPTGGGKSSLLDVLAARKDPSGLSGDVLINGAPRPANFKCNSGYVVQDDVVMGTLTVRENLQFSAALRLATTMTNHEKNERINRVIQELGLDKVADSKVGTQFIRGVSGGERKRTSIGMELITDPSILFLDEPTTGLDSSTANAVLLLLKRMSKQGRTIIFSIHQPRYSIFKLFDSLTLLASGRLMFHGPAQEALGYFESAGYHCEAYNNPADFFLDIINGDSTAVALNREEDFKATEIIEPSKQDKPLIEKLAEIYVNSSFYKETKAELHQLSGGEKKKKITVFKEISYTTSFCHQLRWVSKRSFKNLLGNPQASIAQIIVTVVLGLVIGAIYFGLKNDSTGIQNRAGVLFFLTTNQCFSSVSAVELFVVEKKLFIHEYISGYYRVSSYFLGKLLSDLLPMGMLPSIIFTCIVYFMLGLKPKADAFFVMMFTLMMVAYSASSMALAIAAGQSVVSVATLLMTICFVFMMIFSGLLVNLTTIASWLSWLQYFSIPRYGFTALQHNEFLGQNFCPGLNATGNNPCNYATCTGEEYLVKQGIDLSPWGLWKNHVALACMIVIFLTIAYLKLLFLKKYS
Description: FIG. 2: Comparison of the effects of various compounds on the vanadate sensitive ATPase activity in isolated Sf9 membranes of ABCG2 (FIG. 2a) or MDR1 (FIG. 2b) expressing Sf9 cells. […] Data points indicate the mean±S.D. values of at least four measurements, performed in two or three different membrane preparations.
Individual clones expressing high levels of the human ABCG2 were obtained by end-point dilution and subsequent amplification. The clone producing the highest yield of the ABCG2 protein was selected by immunoblotting (see below).
The reaction mixture contained 40 mM MOPS-Tris (pH 7.0), 50 MM KCl, 2 mM dithiothreitol, 500 μM EGTA-Tris, 5 mM Na-azide, 1 mM oubain and 5-20 μg membrane protein. […] The vanadate sensitive faction was determined in the presence of 1 mM Na-orthovanadate.

human MDR1 protein = human MDR1 protein (Homo sapiens, UniProt P08183)
Description: Data points indicate the mean±S.D. values of at least four measurements, performed in two or three different membrane preparations. Control values show the activity measured in the absence of added compounds.

ABCG2 [2] = molecular target: T1, ABCG2
Method: FIG. 5. Mitoxantrone uptake in intact Sf9 cells expressing ABCG2 variants.
Flow-cytometry determination of MX fluorescence after 30 min incubation at 37° C.
Cells were washed once and suspended in HPMI. Aliquots of the suspension containing 3×10^5 cells were incubated with or without the addition of 5 μM MX, and also with 5 μM MX+10 μM FTC (a specific inhibitor of ABCG2). After an incubation for 30 minutes at 37° C. the cells were washed with ice-cold HPMI medium and than suspended in ice-cold HPMI containing 1.51 μl 10 mg/ml propidium-iodide and stored on ice until the flow cytometry measurements. […] Events were counted up to 15000 and dead cells were excluded based on propidium iodide staining.

ABCG2 [3] = molecular target: T1, ABCG2; test: Hoechst dye uptake in intact Sf9 cells expressing ABCG2 (fluorescence spectrophotometry); type: cell-based; parameters: removing the full length human ABCG2 cDNA (G482 variant); expressed in transfected cells; host or cells: Sf9 insect cells infected with recombinant baculovirus
Method: FIG. 6. Hoechst dye uptake followed by fluorescence spectrophotometry in Sf9 cells expressing ABCG2482G (Panel A) or ABCG2 K86M mutant (Panel B). Abscissa: time in seconds. Ordinate: relative fluorescence in arbitrary units.
Hoechst33342 uptake—Hoechst dye uptake (5 μM) was measured in a fluorescence spectrophotometer at 350 nm (excitation)/460 nm (emission), by using 3×10^5 cells in a HPMI solution. This dye becomes fluorescent only in a complex with DNA (Haugland, MP catalogue). The initial increase of fluorescence is due to a rapid dye uptake and nuclear staining in dead cells, while further cellular dye uptake is reflected by an increase in fluorescence. At the end of each experiment, for standardization, a full cellular staining is obtained by the addition of 8 μM digitonin, disrupting the integrity of the cell membrane.

[4] = relative to the ATPase activity measured in the absence of compound

human MDR1 protein, sequence (P08183 whole entry): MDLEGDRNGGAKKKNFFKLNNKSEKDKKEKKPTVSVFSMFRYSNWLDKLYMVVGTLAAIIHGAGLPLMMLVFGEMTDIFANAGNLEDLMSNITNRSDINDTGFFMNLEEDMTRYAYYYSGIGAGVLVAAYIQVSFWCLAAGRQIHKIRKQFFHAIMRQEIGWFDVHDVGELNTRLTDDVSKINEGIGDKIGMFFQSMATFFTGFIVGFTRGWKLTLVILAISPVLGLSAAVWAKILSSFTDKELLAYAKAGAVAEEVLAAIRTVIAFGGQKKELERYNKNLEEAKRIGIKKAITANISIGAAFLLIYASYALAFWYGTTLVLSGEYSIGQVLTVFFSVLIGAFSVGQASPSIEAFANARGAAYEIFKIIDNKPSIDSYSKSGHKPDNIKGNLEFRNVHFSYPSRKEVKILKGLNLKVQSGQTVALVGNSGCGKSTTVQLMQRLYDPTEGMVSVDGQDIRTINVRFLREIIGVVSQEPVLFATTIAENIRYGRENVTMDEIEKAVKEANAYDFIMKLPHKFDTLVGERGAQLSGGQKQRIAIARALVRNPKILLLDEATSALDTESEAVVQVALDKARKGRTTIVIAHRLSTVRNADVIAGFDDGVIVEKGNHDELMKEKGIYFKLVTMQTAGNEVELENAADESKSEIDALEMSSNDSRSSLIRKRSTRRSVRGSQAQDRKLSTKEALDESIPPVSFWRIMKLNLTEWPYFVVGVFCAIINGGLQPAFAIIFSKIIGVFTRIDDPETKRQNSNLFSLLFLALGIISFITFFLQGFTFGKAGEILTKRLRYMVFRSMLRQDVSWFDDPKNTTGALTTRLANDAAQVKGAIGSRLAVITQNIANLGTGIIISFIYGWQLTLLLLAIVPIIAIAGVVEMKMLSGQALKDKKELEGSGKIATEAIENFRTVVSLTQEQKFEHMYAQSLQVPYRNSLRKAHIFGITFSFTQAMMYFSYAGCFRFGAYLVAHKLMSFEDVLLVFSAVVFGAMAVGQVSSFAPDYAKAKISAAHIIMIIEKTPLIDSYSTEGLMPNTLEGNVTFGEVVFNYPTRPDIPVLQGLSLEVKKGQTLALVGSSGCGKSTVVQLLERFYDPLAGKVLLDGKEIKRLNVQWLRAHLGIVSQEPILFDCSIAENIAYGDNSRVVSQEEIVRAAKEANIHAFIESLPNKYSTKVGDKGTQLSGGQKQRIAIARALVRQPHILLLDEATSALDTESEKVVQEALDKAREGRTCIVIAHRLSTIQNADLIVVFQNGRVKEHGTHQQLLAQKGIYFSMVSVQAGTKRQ

Compound: CC(=O)OCOC(=O)CN(CC(=O)OCOC(C)=O)Cc1cc2c(cc1OC(C)=O)Oc1cc(OC(C)=O)c(CN(CC(=O)OCOC(C)=O)CC(=O)OCOC(C)=O)cc1C21OC(=O)c2ccccc21 [Calcein-AM, calcein acetoxy-methylesther]
- Effect on ABCG2-ATPase activity (ABCG2 [1]; result in words): no effect
- Kact, MDR1-ATPase (human MDR1 protein): about 1 μM
- Stimulation of MDR1-ATPase (human MDR1 protein): 4.5 fold

Compound: COc1cccc2c1C(=O)c1c(O)c3c(c(O)c1C2=O)C[C@@](O)(C(C)=O)C[C@@H]3O[C@H]1C[C@H](N)[C@H](O)[C@H](C)O1 [Daunorubicin]
- Emax (ABCG2 [1]; human, pH 7): 50%
- Kact (ABCG2 [1]; human, pH 7): 2,5 mM

Compound: COc1cccc2c1C(=O)c1c(O)c3c(c(O)c1C2=O)C[C@@](O)(C(=O)CO)C[C@@H]3O[C@H]1C[C@H](N)[C@H](O)[C@H](C)O1 [Doxorubicin]
- Emax (ABCG2 [1]; human, pH 7): 30%
- Kact (ABCG2 [1]; human, pH 7): 5 mM

Compound: COc1ccc2c3c([nH]c2c1)[C@H](C=C(C)C)N1C(=O)[C@@H]2CCCN2C(=O)[C@@H]1C3 [Fumitremorgin C]
- Ki (ABCG2 [1]): 1.3 µM
- Maximum inhibition (%) (ABCG2 [1]; [4]): 74%
- Effect on ABCG2-ATPase activity (ABCG2 [1]; result in words): strongly inhibited
- Effect on active extrusion of fluorescent compounds by ABCG2 482 variants (ABCG2 [2]; 482R, 482G, 482T variants, intact Sf9 cells): inhibited
- Effect on verapamil stimulated MDR1-ATPase activity (human MDR1 protein; 33 μM verapamil): no significant effect
- Effect on MDR1-ATPase activity (human MDR1 protein; basal, result in words): no significant effect

Compound: CCOc1ccc(-c2nc3ccc(-c4nc5ccc(N6CCN(C)CC6)cc5[nH]4)cc3[nH]2)cc1 [Hoechst dye, Hoechst33342]
- Hoechst dye extrusion by ABCG2-expressing Sf9 cells (ABCG2 [3]): actively extrude

Compound: Nc1ncnc2c1ncn2[C@@H]1O[C@H](COP(=O)(O)OP(=O)([O-])OP(=O)([O-])O)[C@@H](O)[C@H]1O.[Mg+2] [MgATP]
- Km (ABCG2 [1]): ~300 µM
- MgATP concentration producing half-maximum membrane ATPase activity (ABCG2 [1]): 0.3 mM
- Km (ABCG2 [1]; read-out: KM ATP, without an added substrate): 600 µM

Compound: O=C1c2c(O)ccc(O)c2C(=O)c2c(NCCNCCO)ccc(NCCNCCO)c21 [Mitoxantrone]
- Effect on ABCG2-ATPase activity (ABCG2 [1]; human, pH 7): stimulated the ABCG2-ATPase activity in a concentration dependent manner
- Emax (ABCG2 [1]; human, pH 7): 40%
- Kact (ABCG2 [1]; human, pH 7): 7 mM
- Mitoxantrone extrusion by ABCG2-expressing Sf9 cells (ABCG2 [2]; intact cells, flow cytometry): actively extrude
- Effect on MDR1-ATPase activity (human MDR1 protein): no significant effect

Compound: CCN1C(=O)C=CC1=O [NEM, N-ethylmaleimide]
- Ki (ABCG2 [1]): 10 µM

Compound: [Na+].[Na+].[Na+].[O]=[V]([O-])([O-])[O-] [Na-orthovanadate]
- Ki (ABCG2 [1]): ~20 µM

Compound: Rhodamine 123
- Kact (ABCG2 [1]): 4,5 mM
- Maximum stimulation (%) (ABCG2 [1]; [4]): 20%
